Measurements taken from patent publication US20240092758A1, “IMIDAZOLO INDAZOLE COMPOUNDS AS JAK INHIBITORS” (Theravance Biopharma R&D IP, LLC, priority 2021, published 2024).

Assays:
JAK1 = JAK1 (Homo sapiens (Human), UniProt P23458); assay: Biochemical JAK kinase assay (LanthaScreen), JAK1; details: for Ki: read-out: JAK1 pKi (converted)
Outline: (§1)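 LanthaScreen format: phospho-STAT1 (pTyr701) detected with 2 nM Tb antibody after 10 mM EDTA quench. Kinase step used Km-level ATP and 200 nM STAT1 peptide, 1 h at ambient after 1 h pre-incubation. Inhibition fitted to IC50, reported as pKi.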

[1] = system: IL-13 induced STAT6 phosphorylation in BEAS-2B human lung epithelial cells; assay: Cellular JAKI potency assay (BEAS-2B); assay type: cell-based; details: Homo sapiens, BEAS-2B, BEAS-2B cells, read-out: BEAS2B pIC50 (converted)
Outline: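 AlphaLISA SureFire detection of Tyr641 pSTAT6 in lysates gave IC50s (4-parameter fit, expressed as pIC50). Cells: human BEAS-2B, exposed 1 h at 37 °C to compound dose series at 0.1% DMSO, then 30 min to IL-13 added at 80 ng/mL in HEPES-buffered HBSS with BSA.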

[2] = Pharmacokinetics in plasma and lung in mouse after oral aspiration administration; assay type: in vivo; details: male CD1 mice; for Lung Tissue AUC(0-24) / AUC(0-t): 0.2 mg/mL, two 25 μL increments; for Lung Tissue:Plasma AUC ratio: lung AUC to plasma AUC; for AUC(0-t): mouse, inhaled or intranasal, 0.01 mg/mouse, plasma, read-out: Plasma AUC(0-24)
Protocol: Plasma and lung concentrations of test compounds were quantified and pharmacokinetic parameters were calculated in the following manner. Male CD1 mice from Charles River Laboratories were used in the pharmacokinetic studies. Test compounds were individually formulated in 20% propylene glycol in pH 4 citrate buffer at a concentration of 0.2 mg/mL. Test compounds were administered in two, 25 μL increments introduced into the trachea of each mouse by oral aspiration using a calibrated pipette once the animal was anesthetized using isoflurane. Blood samples were collected as terminal collections via cardiac puncture at 0.167, 1, 4, 8, and 24 hr post-dosing. Following […] with CO2, a direct cardiac puncture was performed while avoiding puncturing the lung and blood was immediately transferred into K2EDTA tubes and placed on wet ice. Blood samples were centrifuged (Eppendorf centrifuge, 5804R) for 4 minutes at approximately 12,000 rpm at 4° C. to collect plasma. Intact lungs were also excised from these mice using the same timepoints (0.167, 1, 4, 8, and 24 hr). Lungs were washed with sterile water to remove any blood residue and were patted dry, weighed, and homogenized in 0.1% formic acid in water at a dilution of 1:3 (lung:water, weight/volume). Plasma and lung concentrations of test compounds were determined by LC-MS/MS analysis against analytical standards constructed into a standard curve in the test matrix. The pharmacokinetic parameters of test compounds were determined by non-compartmental analysis. For concentrations below the limit of quantification, zero was used for mean calculations. Mean values were not reported if more than 50% of the samples were below the limit of quantification at a timepoint, or if more than 50% of a calculated pharmacokinetic parameter was not reportable. The area under the concentration-time curve extrapolated to infinity (AUC(0-inf)) was calculated as follows: AUC(0-inf)=AUC(0-t)+Clast/k, where AUC(0-t) is the area under the concentration-time curve from the time of dosing to the last measurable concentration calculated by the linear trapezoidal rule, Clast is the last measurable concentration, and k is the first order rate constant associated with the terminal elimination phase, estimated by linear regression of time versus log concentration. The lung-to-plasma AUC ratio was determined as the ratio of the lung AUC(0-inf) in μg*hr/g to the plasma AUC(0-inf) in μg*hr/mL.

JAK2 = JAK2 (Homo sapiens (Human), UniProt O60674); assay: Biochemical JAK kinase assay (LanthaScreen), JAK2; details: for Ki: read-out: JAK2 pKi (converted)
Outline: as §1

TYK2 = TYK2 (Homo sapiens (Human), UniProt P29597); assay: Biochemical JAK kinase assay (LanthaScreen), Tyk2; details: read-out: Tyk2 pKi (converted)
Protocol: A panel of four LanthaScreen JAK biochemical assays (JAK1, 2, 3 and Tyk2) were carried in a common kinase reaction buffer (50 mM HEPES, pH 7.5, 0.01% Brij-35, 10 mM MgCl2, and 1 mM EGTA). Recombinant GST-tagged JAK enzymes and a GFP-tagged STAT1 peptide substrate were obtained from Life Technologies.
Serially diluted compounds were pre-incubated with each of the four JAK enzymes and the substrate in white 384-well microplates (Corning) at ambient temperature for 1 h. ATP was subsequently added to initiate the kinase reactions in 10 μL total volume, with 1% DMSO. The final enzyme concentrations for JAK1, 2, 3 and Tyk2 are 4.2 nM, 0.1 nM, 1 nM, and 0.25 nM respectively; the corresponding Km ATP concentrations used are 25 μM, 3 μM, 1.6 μM, and 10 μM; while the substrate concentration is 200 nM for all four assays. Kinase reactions were allowed to proceed for 1 hour at ambient temperature before a 10 μL preparation of EDTA (10 mM final concentration) and Tb-anti-pSTAT1 (pTyr701) antibody (Life Technologies, 2 nM final concentration) in TR-FRET dilution buffer (Life Technologies) was added. The plates were allowed to incubate at ambient temperature for 1 h before being read on the EnVision reader (Perkin Elmer). Emission ratio signals (520 nm/495 nm) were recorded and utilized to calculate the percent inhibition values based on DMSO and background controls.
For dose-response analysis, percent inhibition data were plotted vs. compound concentrations, and IC50 values were determined from a 4-parameter robust fit model with the Prism software (GraphPad Software). Results were expressed as pIC50 (negative logarithm of IC50) and subsequently converted to pKi (negative logarithm of dissociation constant, Ki) using the Cheng-Prusoff equation.
Test compounds having a lower Ki value or higher pKi value in the four JAK assays show greater inhibition of JAK activity.

Chain of JAK2 (O60674 whole entry): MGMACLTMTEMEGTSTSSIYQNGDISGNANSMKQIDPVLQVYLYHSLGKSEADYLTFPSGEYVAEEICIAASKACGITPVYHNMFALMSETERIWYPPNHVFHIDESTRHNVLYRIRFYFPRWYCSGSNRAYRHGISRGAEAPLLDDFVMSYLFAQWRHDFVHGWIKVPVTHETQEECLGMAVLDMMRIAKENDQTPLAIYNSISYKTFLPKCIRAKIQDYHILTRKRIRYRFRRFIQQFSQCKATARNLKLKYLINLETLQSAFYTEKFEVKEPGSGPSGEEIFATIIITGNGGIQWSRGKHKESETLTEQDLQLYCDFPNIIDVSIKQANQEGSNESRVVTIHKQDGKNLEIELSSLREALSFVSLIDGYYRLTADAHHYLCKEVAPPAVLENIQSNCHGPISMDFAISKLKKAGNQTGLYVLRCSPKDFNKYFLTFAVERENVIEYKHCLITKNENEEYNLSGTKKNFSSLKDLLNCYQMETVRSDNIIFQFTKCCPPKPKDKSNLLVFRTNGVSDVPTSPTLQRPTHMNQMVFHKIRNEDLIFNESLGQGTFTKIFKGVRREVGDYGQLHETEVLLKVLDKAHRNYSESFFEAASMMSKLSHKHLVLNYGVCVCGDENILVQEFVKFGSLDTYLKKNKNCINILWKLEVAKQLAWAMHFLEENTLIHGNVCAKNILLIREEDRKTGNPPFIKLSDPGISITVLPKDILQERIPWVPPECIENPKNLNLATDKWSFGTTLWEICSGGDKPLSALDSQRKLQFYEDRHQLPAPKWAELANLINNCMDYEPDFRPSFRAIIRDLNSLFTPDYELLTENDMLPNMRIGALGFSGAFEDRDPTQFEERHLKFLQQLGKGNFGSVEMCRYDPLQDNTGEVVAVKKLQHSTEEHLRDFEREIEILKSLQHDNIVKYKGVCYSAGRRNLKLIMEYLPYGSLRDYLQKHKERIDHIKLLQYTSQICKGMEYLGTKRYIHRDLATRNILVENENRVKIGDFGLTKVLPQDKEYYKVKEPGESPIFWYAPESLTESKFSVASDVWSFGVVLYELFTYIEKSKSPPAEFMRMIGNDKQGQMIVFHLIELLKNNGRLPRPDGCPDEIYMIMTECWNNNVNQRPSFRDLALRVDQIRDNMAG
Chain of JAK1 (P23458 whole entry): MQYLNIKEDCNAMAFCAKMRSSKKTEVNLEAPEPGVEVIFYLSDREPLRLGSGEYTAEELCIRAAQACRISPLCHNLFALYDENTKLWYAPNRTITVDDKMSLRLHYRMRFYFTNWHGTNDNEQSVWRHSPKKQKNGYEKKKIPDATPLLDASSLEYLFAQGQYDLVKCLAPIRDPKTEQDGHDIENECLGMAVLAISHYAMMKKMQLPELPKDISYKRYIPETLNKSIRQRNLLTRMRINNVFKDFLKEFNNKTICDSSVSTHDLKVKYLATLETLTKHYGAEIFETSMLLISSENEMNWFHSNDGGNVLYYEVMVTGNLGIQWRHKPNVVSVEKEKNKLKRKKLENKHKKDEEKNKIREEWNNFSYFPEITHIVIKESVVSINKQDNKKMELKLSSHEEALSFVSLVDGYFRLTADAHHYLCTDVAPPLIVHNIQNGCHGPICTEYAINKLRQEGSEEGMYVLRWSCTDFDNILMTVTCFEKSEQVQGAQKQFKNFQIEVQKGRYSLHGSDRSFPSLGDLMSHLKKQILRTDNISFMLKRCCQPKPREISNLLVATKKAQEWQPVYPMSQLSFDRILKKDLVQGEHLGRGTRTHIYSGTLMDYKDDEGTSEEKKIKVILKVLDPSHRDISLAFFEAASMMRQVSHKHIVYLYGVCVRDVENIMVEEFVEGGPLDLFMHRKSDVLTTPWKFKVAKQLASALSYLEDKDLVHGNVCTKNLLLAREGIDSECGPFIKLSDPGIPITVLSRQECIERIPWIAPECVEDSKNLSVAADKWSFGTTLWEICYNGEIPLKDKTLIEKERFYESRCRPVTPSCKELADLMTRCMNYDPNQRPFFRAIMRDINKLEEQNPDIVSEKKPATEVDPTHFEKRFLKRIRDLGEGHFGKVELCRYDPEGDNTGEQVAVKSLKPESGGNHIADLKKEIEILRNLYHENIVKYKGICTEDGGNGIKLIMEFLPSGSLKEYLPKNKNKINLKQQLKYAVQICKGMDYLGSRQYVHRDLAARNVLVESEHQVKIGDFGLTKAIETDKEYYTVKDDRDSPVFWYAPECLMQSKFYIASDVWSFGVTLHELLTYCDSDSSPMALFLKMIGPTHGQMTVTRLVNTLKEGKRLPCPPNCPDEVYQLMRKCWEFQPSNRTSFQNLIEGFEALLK
Chain of TYK2 (P29597 whole entry): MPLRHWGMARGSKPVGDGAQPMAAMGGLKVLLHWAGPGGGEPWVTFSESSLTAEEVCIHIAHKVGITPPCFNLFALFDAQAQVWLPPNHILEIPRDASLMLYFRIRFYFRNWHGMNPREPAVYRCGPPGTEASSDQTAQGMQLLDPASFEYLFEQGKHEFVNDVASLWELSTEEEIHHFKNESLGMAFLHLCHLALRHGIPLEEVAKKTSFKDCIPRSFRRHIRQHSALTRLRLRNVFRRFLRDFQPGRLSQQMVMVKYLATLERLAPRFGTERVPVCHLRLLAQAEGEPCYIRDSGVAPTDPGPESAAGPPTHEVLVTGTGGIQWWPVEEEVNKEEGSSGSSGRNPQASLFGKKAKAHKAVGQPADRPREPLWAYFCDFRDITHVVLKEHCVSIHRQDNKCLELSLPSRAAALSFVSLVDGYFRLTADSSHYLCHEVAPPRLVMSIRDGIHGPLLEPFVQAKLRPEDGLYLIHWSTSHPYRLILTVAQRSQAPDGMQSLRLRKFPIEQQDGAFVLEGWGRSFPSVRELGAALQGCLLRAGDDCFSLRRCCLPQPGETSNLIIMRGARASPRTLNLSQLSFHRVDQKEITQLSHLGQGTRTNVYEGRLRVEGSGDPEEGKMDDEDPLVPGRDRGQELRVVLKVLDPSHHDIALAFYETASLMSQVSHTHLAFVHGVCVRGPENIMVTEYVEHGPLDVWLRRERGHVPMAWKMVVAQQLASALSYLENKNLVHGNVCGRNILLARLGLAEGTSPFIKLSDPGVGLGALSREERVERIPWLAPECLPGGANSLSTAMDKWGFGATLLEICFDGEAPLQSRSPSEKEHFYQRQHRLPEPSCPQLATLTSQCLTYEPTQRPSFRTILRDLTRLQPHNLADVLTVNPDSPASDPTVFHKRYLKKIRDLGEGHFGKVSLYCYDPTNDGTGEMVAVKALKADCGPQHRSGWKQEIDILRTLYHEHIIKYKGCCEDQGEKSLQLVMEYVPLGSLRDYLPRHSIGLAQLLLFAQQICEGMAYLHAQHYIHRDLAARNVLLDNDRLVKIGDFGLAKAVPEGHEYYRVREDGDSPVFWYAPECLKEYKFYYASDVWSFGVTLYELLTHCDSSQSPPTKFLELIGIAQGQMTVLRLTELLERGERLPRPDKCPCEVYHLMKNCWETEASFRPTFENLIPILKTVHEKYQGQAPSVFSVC

SMILES	Ki (JAK1) [nM]	IC50 [1] [nM]	Lung Tissue AUC(0-24) [2]	Lung Tissue:Plasma AUC ratio [2]	AUC(0-t) [2] [ng·h/mL]	JAK1 pKi (JAK1)	Ki (JAK2) [nM]	JAK2 pKi (JAK2)	Ki (TYK2) [nM]
CCc1cc(O)ccc1-c1ccc2c(-c3nc(C4=CCN(C(C)CO)CC4)c[nH]3)n[nH]c2c1F (stereo not drawn) [Compound 13, 3-ethyl-4-(7-fluoro-3-(4-(1-(1-hydroxypropan-2-yl)-1,2,3,6-tetrahydropyridin-4-yl)-1H-imidazol-2-yl)-1H-indazol-6-yl)phenol]	0.1 to 1	3.16 to 10	B (B denotes a value between 50 and 100)	C (C denotes a ratio between 100 and 200)	500 to 1000				
CCc1cc(O)ccc1-c1ccc2c(-c3nc(C4=CCN(C[C@H](C)CO)CC4)c[nH]3)n[nH]c2c1F [Example 38]		10 to 31.6	C (C denotes a value between 9 and 50)	D (D denotes a ratio between 50 and 100)	< 500	A (A represents a pKi value ≥10 (Ki≤0.1 nM))	0.1 to 1		
CCc1cc(O)ccc1-c1ccc2c(-c3nc(C4=CCN(CCC(C)(C)O)C4)c[nH]3)n[nH]c2c1 [Example 51]		3.16 to 10	C (C denotes a value between 9 and 50)	C (C denotes a ratio between 100 and 200)	< 500	A (A represents a pKi value ≥10 (Ki≤0.1 nM))		A (A represents a pKi value ≥10 (Ki≤0.1 nM))	
CCc1cc(O)ccc1-c1ccc2c(-c3nc(C4=CCCN(C5CCOCC5)C4)c[nH]3)n[nH]c2c1F [Example 69]	0.1 to 1	10 to 31.6					0.1 to 1		1 to 10
CCc1cc(O)ccc1-c1ccc2c(-c3nc(C4=CCN(C5CCNC5=O)C4)c[nH]3)n[nH]c2c1 (stereo not drawn) [Example 94]	0.1 to 1	10 to 31.6	C (C denotes a value between 9 and 50)	E (E denotes a ratio between 30 and 50)	< 500			A (A represents a pKi value ≥10 (Ki≤0.1 nM))	
CCc1cc(O)ccc1-c1ccc2c(-c3nc(C4=CCN(C(=O)[C@@H](N)Cc5ccccc5)CC4)c[nH]3)n[nH]c2c1 [Example 176]	0.1 to 1	31.6 to 100							1 to 10
CCc1cc(O)ccc1-c1ccc2c(-c3nc(C4=CCN(C(=O)[C@@H]5CCCN5)CC4)c[nH]3)n[nH]c2c1 [Example 177]	0.1 to 1	31.6 to 100							1 to 10
CCc1cc(O)ccc1-c1ccc2c(-c3nc(C4=CCN(C(=O)[C@@H](N)Cc5ccccc5)CC4)c[nH]3)n[nH]c2c1F [Example 179]	1 to 10	100 to 316							10 to 100
CCc1cc(O)ccc1-c1ccc2c(-c3nc(C4=CCN(S(=O)(=O)C5CNC5)C4)c[nH]3)n[nH]c2c1F [Example 180]	1 to 10	31.6 to 100							10 to 100
CCc1cc(O)ccc1-c1ccc2c(-c3nc(C4=CCN(C(=O)[C@@H]5CCCN5)C4)c[nH]3)n[nH]c2c1F [Example 181]	0.1 to 1	31.6 to 100							1 to 10
CCc1cc(O)ccc1-c1ccc2c(-c3nc(C4=CCN(C5CCN(C)CC5)CC4)c[nH]3)n[nH]c2c1 [Example 182]		10 to 31.6				A (A represents a pKi value ≥10 (Ki≤0.1 nM))	0.1 to 1		1 to 10
CCc1cc(O)ccc1-c1ccc2c(-c3nc(C4=CCN(CCNC)CC4)c[nH]3)n[nH]c2c1 [Example 183]	0.1 to 1	31.6 to 100							1 to 10
CCc1cc(O)ccc1-c1ccc2c(-c3nc(C4=CCN(CCN)CC4)c[nH]3)n[nH]c2c1F [Example 187]	0.1 to 1	31.6 to 100					0.1 to 1		1 to 10
CCc1cc(O)ccc1-c1ccc2c(-c3nc(C4=CCN(CCNC)CC4)c[nH]3)n[nH]c2c1F [Example 188]	0.1 to 1	31.6 to 100							1 to 10
CCc1cc(O)ccc1-c1ccc2c(-c3nc(C4=CCCN(C[C@@H]5COCCN5)C4)c[nH]3)n[nH]c2c1 [Example 193]	0.1 to 1	31.6 to 100					0.1 to 1		1 to 10
CCc1cc(O)ccc1-c1ccc2c(-c3nc(C4=CCCN(C[C@H]5COCCN5)C4)c[nH]3)n[nH]c2c1F [Example 197]	0.1 to 1	31.6 to 100							1 to 10
CCc1cc(O)ccc1-c1ccc2c(-c3nc(C4=CCCN(CCN5CCOCC5)C4)c[nH]3)n[nH]c2c1F [Example 198]	0.1 to 1	10 to 31.6					0.1 to 1		1 to 10
CCc1cc(O)ccc1-c1ccc2c(-c3nc(C4=CCN(CCN)C4)c[nH]3)n[nH]c2c1F [Example 203]	0.1 to 1	31.6 to 100							1 to 10
CCc1cc(O)ccc1-c1ccc2c(-c3nc(C4=CCN(CCNC)C4)c[nH]3)n[nH]c2c1F [Example 204]	0.1 to 1	31.6 to 100							1 to 10
CCc1cc(O)ccc1-c1ccc2c(-c3nc(C4=CCN(C[C@@H]5COCCN5C)CC4)c[nH]3)n[nH]c2c1F [Example 210]	0.1 to 1	10 to 31.6						A (A represents a pKi value ≥10 (Ki≤0.1 nM))	1 to 10
CCc1cc(O)ccc1-c1ccc2c(-c3nc(C4=CCN(C5CCCNC5)CC4)c[nH]3)n[nH]c2c1F (stereo not drawn) [Example 211]	0.1 to 1	31.6 to 100							1 to 10
CCc1cc(O)ccc1-c1ccc2c(-c3nc(C4=CCCN(C5CCCNC5)C4)c[nH]3)n[nH]c2c1F (stereo not drawn) [Example 216]	1 to 10	100 to 316					0.1 to 1		1 to 10
CCc1cc(O)ccc1-c1ccc2c(-c3nc(C4=CCN(C[C@@H]5COCCN5C)C4)c[nH]3)n[nH]c2c1F [Example 221]	0.1 to 1	10 to 31.6							0.1 to 1
CCc1cc(O)ccc1-c1ccc2c(-c3nc(C4=CCN(C5CCCNC5)C4)c[nH]3)n[nH]c2c1F (stereo not drawn) [Example 222]	0.1 to 1	10 to 31.6							1 to 10
CCc1cc(O)ccc1-c1ccc2c(-c3nc(C4=CC(C)(C)NC(C)(C)C4)c[nH]3)n[nH]c2c1 [Example 226]	0.1 to 1	10 to 31.6							1 to 10
CCc1cc(O)ccc1-c1ccc2c(-c3nc(C4=CCNCC4)c(C)[nH]3)n[nH]c2c1 [Example 291]		3.16 to 10				A (A represents a pKi value ≥10 (Ki≤0.1 nM))			0.1 to 1
CCc1cc(O)ccc1-c1ccc2c(-c3nc(C4=CCN(C[C@@H]5COCCN5C(=O)OC(C)(C)C)CC4)c[nH]3)n[nH]c2c1 [Example 383]	0.1 to 1	31.6 to 100							10 to 100
